Assay results: patent US5580852A, “Derivatives of tachyplesin having inhibitory activity towards plant pathogenic fungi” (Pioneer Hi-Bred International, Inc., priority 1993, dated 1996)

Legend:
Assay type in all cases: cell-based
Fusarium moniliforme = assay: Antifungal testing, MIC and MCIC; details: comparison table
Aspergillus flavus = assay: Antifungal testing, MIC and MCIC; details: comparison table
E. coli = details: bacterial host; statement in words

## CMIII
Fusarium moniliforme; known antimicrobial compounds
  MIC FMO: 18.2 µg/mL
Fusarium moniliforme; value in parentheses
  MIC FMO: 4.6 µM
Aspergillus flavus; known antimicrobial compounds
  MIC AFL: 60 µg/mL
Aspergillus flavus; value in parentheses
  MIC AFL: 15 µM

## KWCFRVCYRGICYRRCR [tachyplesin, natural tachyplesin, small peptide originally isolated from the hemocytes of the horseshoe crab, Tachypleus tridentatus]
Fusarium moniliforme; known antimicrobial compounds
  MIC FMO: 6.25 µg/mL
Fusarium moniliforme; value in parentheses
  MIC FMO: 2.8 µM
Aspergillus flavus; known antimicrobial compounds
  MIC AFL: 6.25 µg/mL
Aspergillus flavus; value in parentheses
  MIC AFL: 2.8 µM
E. coli
  toxicity to E. coli: significant toxicity

## hordothionin
Fusarium moniliforme; known antimicrobial compounds
  MIC FMO: 45 µg/mL
Fusarium moniliforme; value in parentheses
  MIC FMO: 9 µM
Aspergillus flavus; known antimicrobial compounds
  MIC AFL: 15 µg/mL
Aspergillus flavus; value in parentheses
  MIC AFL: 3 µM
